Measured values published in patent publication US11607417B2, “Uses of celastrol in preventing and/or treating cholestatic liver disease and liver fibrosis” (KUNMING INSTITUTE OF BOTANY, THE CHINESE ACADEMY OF SCIENCES, priority 2017, dated 2023).
Several values for one entry are separate records, joined by “and”; a condition that tells them apart may be missing. Identical values can stand only once.

What was measured:
[1] = tested on: TAA-induced cholestatic liver injury under SIRT1 inhibition; assay: Effect of SIRT1 inhibition (EX527) on celastrol activity in TAA model (Example 4); type: in vivo, C57BL/6 mice
Procedure: A total of 24 male C57BL/6 mice were divided into four groups: blank group (n=6);
model group (n=6); treatment group (n=6); EX527 group (n=6).
Celastrol was dissolved in a solvent to obtain a solution of celastrol at a concentration of 2 mg/mL, wherein the solvent consisted of 1% DMSO, 2% Tween, and 97% water (v:v:v). For intragastrical administration, the dosage of celastrol was 10 mg/kg·d. TAA was dissolved in 0.9% NaCl solution to prepare a NaCl solution of TAA at a concentration of 60 mg/mL, and the dosage of TAA for intraperitoneal administration was 300 mg/kg. EX527 was dissolved in corn oil to prepare a corn oil solution of EX527 at a concentration of 2 mg/mL, and the dosage of EX527 for intraperitoneal administration was 10 mg/kg. d.
The EX527 group was simultaneously administered with the celastrol solution and the EX527 corn oil solution for 4 consecutive days. The treatment group was administrated with the celastrol solution and an equal dosage of corn oil for 4 consecutive days. At the same time, the blank group and the model group were administrated with equal dosages of solvent (1% DMSO, 2% Tween 80 and 97% water (v:v:v)) and corn oil, and the solvent was administrated for 4 consecutive days.
On the 4th day, the establishment of TAA model was performed. 1 Hour after administration, the mice in the model group, the treatment group and the EX527 group were intraperitoneally injected with TAA at a dosage of 300 mg/kg to induce cholestatic liver injury. 24 Hours after administration with TAA, the mice were sacrificed by CO2 anesthesia, and plasma samples and liver samples were collected. The eyeballs of the mice were taken for blood collection. The plasma samples were placed on ice for 1-2 hours, centrifuged at 4000 g for 5 minutes at 4° C., and the supernatants of plasma samples were taken to determine the plasma biochemical indicators, the levels of ALT, AST, and ALP.
At the same time, plasma samples were prepared: 10 μL of plasma sample was mixed with 190 μL of 67% acetonitrile (containing 5 μM internal standard chlorpropamide), centrifuged at 18000 g for 20 minutes at 4° C., and the supernatant was taken for sample injection. The liquid chromatography conditions were as follows: the volume of injection was 5 μL; the temperature of column was 45° C.; the flow rate of mobile phase was 0.3 mL/min; the gradient elution was that acetonitrile concentration changed from 2% to 98% during 16 minutes of operation, wherein the mobile phase (water/acetonitrile solution) contained 0.01% formic acid. The elution procedure was as follows: during 0-12th minute, the acetonitrile concentration changed from 2% to 98% at a constant rate; during 12-14th minute, the acetonitrile concentration was maintained at 98%; during 14-14.1th minute, the acetonitrile concentration changed from 98% to 2%; during 14.1-16th minute, the acetonitrile concentration was maintained at 2%. Mass spectrometry conditions were as follows: the temperature of dry gas was 350° C., the pressure of nebulizer was 35 psi, and the voltage of capillary was 3.5 kV.
Part of the collected mouse liver tissue was fixed overnight in formalin, and tissue sections were stained with hematoxylin and eosin (H&E).

[2] = tested on: TAA-induced cholestatic liver injury; assay: TAA-induced mouse cholestatic liver injury (Example 2); type: in vivo, C57BL/6 mice
Procedure: A total of 18 male C57BL/6 mice were divided into three groups: blank group (n=6); model group (n=6); treatment group (n=6).
Celastrol was dissolved in a solvent to obtain a solution of celastrol at a concentration of 2 mg/mL, wherein the solvent consisted of 1% DMSO, 2% Tween, and 97% water (v:v:v). For intragastrical administration, the dosage of celastrol was 10 mg/kg·d. TAA was dissolved in 0.9% NaCl solution to prepare a NaCl solution of TAA at a concentration of […], and the dosage of TAA for intraperitoneal administration was 300 mg/kg.
The treatment group was administered intragastrically with the celastrol solution at a dosage of 10 mg/kg·d for 4 consecutive days. At the same time, the blank group and the model group were intragastrically administered with the same dosage of a solvent, wherein the solvent consisted of 1% DMSO, 2% Tween 80 and 97% water (v:v:v), and the solvent was administrated for 4 consecutive days.
On the 4th day, TAA model was established. 1 Hour after administration with the solvent or celastrol solution, the mice of the treatment group and the model group were respectively intraperitoneally injected with the NaCl solution of TAA at a dosage of 300 mg/kg to induce cholestatic liver injury. 24 Hours after treatment with TAA, the mice were sacrificed by CO2 anesthesia, and plasma samples and liver samples were collected. The eyeballs of the mice were taken for blood collection. The plasma samples were placed on ice for 1-2 hours, centrifuged at 4000 g for 5 minutes at 4° C., and the supernatant plasma samples were taken to determine the plasma biochemical indicators, the levels of ALT, AST and ALP.
At the same time, plasma samples were prepared: 10 μL of plasma sample was taken, mixed with 190 μL of 67% acetonitrile (containing 5 μM internal standard chlorpropamide), centrifuged at 18000 g for 20 minutes at 4° C., and the supernatant was taken for sample injection.
Liver samples were prepared: 100 mg liver samples were mixed well with 1 mL of 50% acetonitrile (containing 5 μM internal standard chlorpropamide), shaken for 20 minutes at room temperature, and then centrifuged at 18000 g for 20 minutes at 4° C. Thereafter, 200 μL of the supernatant was taken and added with 200 μl of pure acetonitrile, vortexed for 1 minute, centrifuged at 18000 g for 20 minutes at 4° C., and the supernatant was taken for sample injection. The liquid chromatography conditions were as follows: the injection volume was 5 μL; the temperature of column was 45° C.; the flow rate of mobile phase was 0.3 mL/min; the gradient elution was that acetonitrile concentration changed from 2% to 98% during 16 minutes of operation, wherein the mobile phase (water/acetonitrile solution) contained 0.01% formic acid. The elution procedure was as follows: during 0-12th minute, the acetonitrile concentration changed from 2% to 98% at a constant rate; 12-14th minute, the acetonitrile concentration was maintained at 98%; 14-14.1th minute, the acetonitrile concentration changed from 98% to 2%; 14.1-16th minute, the acetonitrile concentration was maintained at 2%. Mass spectrometry conditions were as follows: the temperature of dry gas was 350° C., the pressure of nebulizer was 35 psi, and the voltage of capillary was 3.5 kV.
Part of the collected mouse liver tissue was fixed overnight in formalin and tissue sections were stained with hematoxylin and eosin (H&E).

[3] = treatment group: celastrol 10 mg/kg·d, TAA model, P<0.05, FIG. 4E
[4] = celastrol 10 mg/kg·d intragastric 4 days, TAA 300 mg/kg i.p. on day 4, 24 h after TAA, n=6
[5] = celastrol 10 mg/kg·d intragastric 4 days, TAA 300 mg/kg i.p., 24 h after TAA, n=6

CC1=C(O)C(=O)C=C2C1=CC=C1[C@@]2(C)CC[C@@]2(C)[C@@H]3C[C@](C)(C(=O)O)CC[C@]3(C)CC[C@]12C [celastrol, Celastrol]
H&E staining: area of necrosis of liver cells ([1]; treatment group: celastrol 10 mg/kg·d intragastric + corn oil, TAA model, FIG. 4C): significantly reduced | ALT level in plasma vs model group [1, 3]: lower | AST level in plasma vs model group [1, 3]: lower | Levels of bile acids in plasma vs TAA model group ([1]; ω-MCA, DCA, TβMCA/TαMCA, TCA, THDCA/TUDCA, TCDCA, TDCA, treatment group: celastrol 10 mg/kg·d, P<0.05, FIG. 4F): significantly lower | Liver weight of mouse when sacrificed [2, 4]: 1.55 g and 1.55 ± 0.21 g | Liver weight/body weight [2, 4]: 6.48% and 6.48 ± 0.93% | ALP in mouse plasma [2, 5]: 50.1 ± 7.8 U/l | ALT in mouse plasma [2, 5]: 333.3 ± 211.3 U/l | AST in mouse plasma [2, 5]: 920.3 ± 433.4 U/l | H&E staining: area of liver necrosis in liver tissue ([2]; celastrol 10 mg/kg·d intragastric, TAA model, FIG. 2C): significantly reduced | Levels of bile acids in plasma vs TAA model group ([2]; ω-MCA, DCA, TβMCA/TαMCA, TCA, THDCA/TUDCA, TCDCA, TDCA, celastrol 10 mg/kg·d, FIG. 2D): significantly lower | Levels of bile acids in liver vs TAA model group ([2]; ω-MCA, β-MCA, CA, DCA, TβMCA/TαMCA, TCA, GCA, TLCA, celastrol 10 mg/kg·d, FIG. 2E): significantly lower
